We go through one compound from patent US20040204577A1, “Novel peptide-forming enzyme gene” (Ajinomoto Co., Inc., priority 2003, published 2004).

The test system of test [1] is peptide-forming enzyme (Mono S fraction enzyme). Briefly: Production of L-alanyl-L-glutamine from L-alanine methyl ester and L-glutamine with enzyme fraction. In kind it is biochemical, Empedobacter brevis. Particulars: for L-Ala-L-Gln: L-alanine methyl ester hydrochloride 100 mM, 18° C., 2 hours. Here is the method: On the other hand, there was hardly any production of L-Ala-L-Gln observed in an enzyme-non-added lot, and the […] was only about 0.07 mM after reacting for 120 minutes.

Test [2] deals with microbial cells of Sphingobacterium sp. strain FERM BP-8124. Briefly: Production of L-alanyl-L-glutamine using microbial cells of Sphingobacterium sp. In kind it is cell-based. The conditions noted are these: 0.1 mL cell suspension (100 g/L) + 0.1 mL buffer with 200 mM L-alanine methyl ester hydrochloride, 400 mM L-glutamine; pH 9.0, 25° C., 120 minutes. Here is the method: A 50 ml medium (pH 7.0) containing 5 g of glucose, 5 g of ammonium sulfate, 1 g of monopotassium phosphate, 3 g of dipotassium phosphate, 0.5 g of magnesium sulfate, 10 g of yeast extract, and 10 g of peptone in 1 L was transferred to a 500 mL Sakaguchi flask and sterilized at 11 5° C. for 15 minutes for culturing Sphingobacterium sp. strain FERM BP-8124 (Depositary institution: the independent administrative corporation, National Institute of Advanced Industrial Science and Technology, International Patent Organism Depositary, Address of depositary institution: Chuo Dai-6, 1-1 Higashi 1-Chome, Tsukuba-shi, Ibaraki-ken, Japan, International deposit date: Jul. 22, 2002). This medium was then inoculated with one loopful cells of Sphingobacterium sp. strain FERM BP-8124 (Depositary institution: the independent administrative corporation, National Institute of Advanced Industrial Science and Technology, International Patent Organism Depositary, Address of depositary institution: Chuo Dai-6, 1-1 Higashi 1-Chome, Tsukuba-shi, Ibaraki-ken, Japan, International deposit date: Jul. 22, 2002) cultured at 30° C. for 24 hours in a slant agar medium (agar: 20 g/L, pH 7.0) containing 5 g of glucose, 10 g of yeast extract, 10 g of peptone and 5 g of NaCl in 1 L, followed by shake culturing at 30° C. for 20 hours and 120 strokes/minute. […]

Each structure is given as a SMILES string. Where a SMILES comes first, the peptide text is derived from it.

On to `C[C@H](N)C(=O)N[C@@H](CCC(N)=O)C(=O)O` [L-Ala-L-Gln, L-alanyl-L-glutamine] (H-Ala-Gln-OH), for which the “Peptide formed, enzyme-added lot” value in test [1] (100 mM L-alanine methyl ester hydrochloride, 200 mM L-glutamine, 10 mM EDTA, pH 9.0, 18° C., FIG. 3) worked out at 83 mM. Also, the L-Ala-L-Gln was 68.2 mM in test [1] (L-glutamine 100 mM); 72.1 mM in test [1] (L-glutamine 110 mM); 73.3 mM in test [1] (L-glutamine 120 mM); 75.1 mM in test [1] (L-glutamine 130 mM); 75.5 mM in test [1] (L-glutamine 150 mM); 82.0 mM in test [1] (L-glutamine 200 mM). Moreover, the L-alanyl-L-glutamine formed in test [2] was determined as 62 mM.
